Experimental data as given in patent publication US11584755B2 (IDEAYA BIOSCIENCES, INC., priority 2017, dated 2023).

Tests used:
Assay type in all cases: biochemical
hFEN1 = hFEN1 (Homo sapiens (Human), UniProt P39748); test: Enzymatic IC50 assay, FAM-labeled DNA oligomer substrate, fluorescence intensity (FEN1); settings: hFEN1 70 pM, substrate 100 nM, reaction time 20 minutes, 23° C.
Summary of the method: (§1)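 FEN1, EXO1 or XPG was preincubated 15 min with compound, then the FAM-labelled DNA oligomer substrate was added in Tris-HCl pH 8.0 with 10 mM MgCl2 at 23° C. FEN1 was 70 pM with 100 nM substrate for 20 min, EXO1 6 nM with 30 nM for 60 min, and XPG 100 nM with 100 nM for 120 min. Reactions were EDTA-stopped and read by fluorescence intensity.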

hXPG = hXPG (Homo sapiens (Human), UniProt P28715); test: Enzymatic IC50 assay, FAM-labeled DNA oligomer substrate, fluorescence intensity (XPG); settings: hXPG 100 nM, substrate 100 nM, reaction time 120 minutes, 23° C.
Sequence of hXPG (P28715 whole entry): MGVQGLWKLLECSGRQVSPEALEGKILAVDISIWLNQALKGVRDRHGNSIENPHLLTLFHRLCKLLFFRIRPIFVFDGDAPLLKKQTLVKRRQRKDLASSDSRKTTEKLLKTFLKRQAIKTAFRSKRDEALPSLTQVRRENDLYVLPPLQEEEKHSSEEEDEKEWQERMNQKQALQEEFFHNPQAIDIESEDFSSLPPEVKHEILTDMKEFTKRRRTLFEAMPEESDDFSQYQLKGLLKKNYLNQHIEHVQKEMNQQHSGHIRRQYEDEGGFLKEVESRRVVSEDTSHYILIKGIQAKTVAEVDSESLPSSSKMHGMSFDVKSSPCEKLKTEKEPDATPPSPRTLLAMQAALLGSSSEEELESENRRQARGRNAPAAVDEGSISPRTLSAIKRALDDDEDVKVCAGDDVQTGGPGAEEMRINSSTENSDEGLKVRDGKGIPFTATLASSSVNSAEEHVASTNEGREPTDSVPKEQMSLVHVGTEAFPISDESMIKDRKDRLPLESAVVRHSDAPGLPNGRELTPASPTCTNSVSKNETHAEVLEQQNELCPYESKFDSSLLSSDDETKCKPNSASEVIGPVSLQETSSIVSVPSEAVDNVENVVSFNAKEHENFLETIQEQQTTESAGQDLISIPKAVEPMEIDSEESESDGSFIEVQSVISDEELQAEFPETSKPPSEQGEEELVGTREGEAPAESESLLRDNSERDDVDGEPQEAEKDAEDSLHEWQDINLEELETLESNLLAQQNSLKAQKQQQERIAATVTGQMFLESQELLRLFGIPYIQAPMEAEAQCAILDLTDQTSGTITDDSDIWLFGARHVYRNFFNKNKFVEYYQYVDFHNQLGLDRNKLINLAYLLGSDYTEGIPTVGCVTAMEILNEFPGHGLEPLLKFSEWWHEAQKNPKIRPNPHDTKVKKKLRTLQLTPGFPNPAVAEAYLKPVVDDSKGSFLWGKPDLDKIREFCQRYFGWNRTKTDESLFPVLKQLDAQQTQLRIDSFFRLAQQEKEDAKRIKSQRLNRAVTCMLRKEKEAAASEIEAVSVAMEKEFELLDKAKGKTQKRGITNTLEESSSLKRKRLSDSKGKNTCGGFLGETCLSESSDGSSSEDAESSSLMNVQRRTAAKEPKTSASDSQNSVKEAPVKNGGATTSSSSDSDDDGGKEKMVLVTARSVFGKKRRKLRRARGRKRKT
Protocol: FEN1, EXO1 or XPG enzyme was incubated with compound or vehicle (DMSO) and the FAM-labeled DNA oligomer substrate in a microtiter plate. The stop buffer contains EDTA to stop the enzymatic reaction. The plate is read for fluorescence intensity. The high control (DMSO) with high fluorescence intensity represents no inhibition of enzymatic reaction while the low control (10 μM) with low fluorescence intensity represents full inhibition of enzymatic reaction.
• FEN1 • hFEN1: 70 pM • Substrate: 100 nM • Reaction time: 20 minutes • EXO1 • hEXO1: 6 nM, Isoforml • Substrate: 30 nM • Reaction time: 60 minutes • XPG • hXPG: 100 nM • Substrate: 100 nM • Reaction time: 120 minutes
Annealing Buffer: 50 mM Tris-HCl, 50 mM NaCl, 1 mM DTT Assay buffer: 50 mM Tris-HCl pH 8.0, 10 mM MgCl2, 0.01% BSA, 1 mM DTT Stop buffer: 50 mM EDTA in assay buffer Temperature: 23° C. Total volume: 40 μl Controls: • 0% inhibition control: DMSO • 100% inhibition control: 10 μM (final) 5-chloro-3-hydroxy-1,3-dihydroquinazoline-2,4-dione Enzyme Reaction and Detection: • 1. Prepare 25 μM intermediate stock of the substrate by diluting SEQ ID NO:1, SEQ ID NO:2, and SEQ ID NO:3 in annealing buffer, in a PCR tube. • 2. Place the PCR tube on a heat block, heat at 95° C. for 3 minutes, then drop in 0.2° C. increments over 2 minutes, stopping at 25° C. • 3. Remove the tube and let the tube cool at room temperature. • 4. Transfer 10 μL of 3× final concentration test compounds or DMSO to the appropriate wells of a microtiter plate. • 5. Transfer 10 μL of 3× final concentration enzyme in assay buffer or assay buffer alone to the appropriate wells. • 6. Incubate the plate at room temperature for 15 minutes. • 7. Transfer 10 μL of 3× substrate in assay buffer to all the test wells. • 8. Incubate the plate at room temperature for prescribed reaction time. • 9. Centrifuge the plate at 1000 rpm for 1 minute. • 10. Transfer 10 μL of stop buffer to all the test wells. • 11. Centrifuge the plate at 1000 rpm for 1 minute. • 12. Read the plate on a plate reader.

hEXO1, Isoform1 = hEXO1, Isoform1 (Homo sapiens (Human), UniProt Q9UQ84); test: Enzymatic IC50 assay, FAM-labeled DNA oligomer substrate, fluorescence intensity (EXO1); settings: hEXO1 6 nM, substrate 30 nM, reaction time 60 minutes, 23° C.
Sequence of hEXO1, Isoform1 (Q9UQ84 whole entry, canonical isoform): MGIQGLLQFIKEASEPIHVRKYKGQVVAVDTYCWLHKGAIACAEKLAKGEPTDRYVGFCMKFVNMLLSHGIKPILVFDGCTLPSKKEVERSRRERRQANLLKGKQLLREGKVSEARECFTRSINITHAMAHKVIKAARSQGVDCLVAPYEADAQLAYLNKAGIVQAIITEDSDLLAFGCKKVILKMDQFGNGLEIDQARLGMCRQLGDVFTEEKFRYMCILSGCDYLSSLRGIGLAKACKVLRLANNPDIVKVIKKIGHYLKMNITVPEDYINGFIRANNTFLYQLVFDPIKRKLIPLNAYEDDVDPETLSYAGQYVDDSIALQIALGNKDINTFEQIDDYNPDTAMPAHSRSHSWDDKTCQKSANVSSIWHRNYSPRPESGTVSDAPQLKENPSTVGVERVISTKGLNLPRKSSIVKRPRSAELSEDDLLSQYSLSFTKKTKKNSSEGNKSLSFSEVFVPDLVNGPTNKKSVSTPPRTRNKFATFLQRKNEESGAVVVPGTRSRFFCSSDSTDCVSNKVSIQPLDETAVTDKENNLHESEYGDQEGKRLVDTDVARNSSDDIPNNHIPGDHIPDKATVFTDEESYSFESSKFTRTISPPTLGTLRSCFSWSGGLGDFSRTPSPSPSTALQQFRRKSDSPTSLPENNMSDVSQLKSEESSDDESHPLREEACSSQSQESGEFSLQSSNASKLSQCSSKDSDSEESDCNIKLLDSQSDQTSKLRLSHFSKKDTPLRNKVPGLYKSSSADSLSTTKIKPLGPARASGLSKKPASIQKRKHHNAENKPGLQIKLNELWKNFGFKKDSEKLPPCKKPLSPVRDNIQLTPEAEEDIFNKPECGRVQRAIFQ
Summary of the method: as §1

Sequence of hFEN1 (P39748 whole entry): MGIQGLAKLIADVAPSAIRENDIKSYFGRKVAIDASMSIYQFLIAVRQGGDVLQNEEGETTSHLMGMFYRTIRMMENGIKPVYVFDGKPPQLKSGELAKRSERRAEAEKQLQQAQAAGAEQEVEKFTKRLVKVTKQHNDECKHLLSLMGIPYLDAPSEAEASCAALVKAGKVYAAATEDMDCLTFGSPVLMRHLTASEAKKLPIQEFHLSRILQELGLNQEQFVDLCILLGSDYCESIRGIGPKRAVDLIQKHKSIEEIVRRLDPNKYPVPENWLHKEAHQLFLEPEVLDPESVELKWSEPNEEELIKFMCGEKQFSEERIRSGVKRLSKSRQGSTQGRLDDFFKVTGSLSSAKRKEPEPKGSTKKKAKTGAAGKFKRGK

Row | SMILES | IC50 (hFEN1) | IC50 (hXPG) | IC50 (hEXO1, Isoform1)
1 | CS(=O)(=O)Nc1ccc(-n2cc(Cn3c(=O)c(O)c(C(=O)O)c4sccc43)cn2)cc1 [Example 117, 6-hydroxy-4-({1-[4-(methylsulfonamido)phenyl]-1H-pyrazol-4-yl}methyl)-5-oxo-4,5-dihydrothieno[3,2-b]pyridine-7-carboxylic acid] | < 200 nM | 250 to 750 nM | 250 to 750 nM
2 | O=C(O)c1c(O)c(=O)n(Cc2cnn(Cc3ccccn3)c2)c2ccsc12 [Example 119, 6-hydroxy-5-oxo-4-{[1-(pyridin-2-ylmethyl)-1H-pyrazol-4-yl]methyl}-4,5-dihydrothieno[3,2-b]pyridine-7-carboxylic acid] | < 200 nM | > 10000 nM | 2250 to 10000 nM
3 | O=C(O)c1c(O)c(=O)n(Cc2cnn(Cc3cccnc3)c2)c2ccsc12 [Example 120, 6-hydroxy-5-oxo-4-{[1-(pyridin-3-ylmethyl)-1H-pyrazol-4-yl]methyl}-4,5-dihydrothieno[3,2-b]pyridine-7-carboxylic acid] | < 200 nM | 2250 to 10000 nM | 2250 to 10000 nM
4 | O=C(O)c1c(O)c(=O)n(Cc2cnn(Cc3ccncc3)c2)c2ccsc12 [Example 121, 6-hydroxy-5-oxo-4-{[1-(pyridin-4-ylmethyl)-1H-pyrazol-4-yl]methyl}-4,5-dihydrothieno[3,2-b]pyridine-7-carboxylic acid] | < 200 nM | 2250 to 10000 nM | 2250 to 10000 nM
5 | O=C(O)c1c(O)c(=O)n(Cc2cnn(Cc3ccccc3)c2)c2ccsc12 [Example 122, 4-[(1-benzyl-1H-pyrazol-4-yl)methyl]-6-hydroxy-5-oxo-4,5-dihydrothieno[3,2-b]pyridine-7-carboxylic acid] | < 200 nM | 750 to 2250 nM | 2250 to 10000 nM
6 | O=C(O)c1c(O)c(=O)n(Cc2cnn(Cc3cn4ccncc4n3)c2)c2ccsc12 [Example 125, 6-hydroxy-4-{[1-(imidazo[1,2-a]pyrazin-2-ylmethyl)-1H-pyrazol-4-yl]methyl}-5-oxo-4,5-dihydrothieno[3,2-b]pyridine-7-carboxylic acid] | < 200 nM | 2250 to 10000 nM | 750 to 2250 nM
7 | N#Cc1ccc(Cn2cc(Cn3c(=O)c(O)c(C(=O)O)c4sccc43)cn2)cc1 [Example 127, 4-{[1-(4-cyanobenzyl)-1H-pyrazol-4-yl]methyl}-6-hydroxy-5-oxo-4,5-dihydrothieno[3,2-b]pyridine-7-carboxylic acid] | < 200 nM | 2250 to 10000 nM | 750 to 2250 nM
8 | N#Cc1cccc(Cn2cc(Cn3c(=O)c(O)c(C(=O)O)c4sccc43)cn2)c1 [Example 128, 4-{[1-(3-cyanobenzyl)-1H-pyrazol-4-yl]methyl}-6-hydroxy-5-oxo-4,5-dihydrothieno[3,2-b]pyridine-7-carboxylic acid] | < 200 nM | 2250 to 10000 nM | 2250 to 10000 nM
9 | CS(=O)(=O)c1ccc(Cn2cc(Cn3c(=O)c(O)c(C(=O)O)c4sccc43)cn2)cc1 [Example 130, 6-hydroxy-4-({1-[4-(methylsulfonyl)benzyl]-1H-pyrazol-4-yl}methyl)-5-oxo-4,5-dihydrothieno[3,2-b]pyridine-7-carboxylic acid] | < 200 nM | 2250 to 10000 nM | 2250 to 10000 nM
10 | CS(=O)(=O)c1cccc(Cn2cc(Cn3c(=O)c(O)c(C(=O)O)c4sccc43)cn2)c1 [Example 131, 6-hydroxy-4-({1-[3-(methylsulfonyl)benzyl]-1H-pyrazol-4-yl}methyl)-5-oxo-4,5-dihydrothieno[3,2-b]pyridine-7-carboxylic acid] | < 200 nM | 2250 to 10000 nM | 2250 to 10000 nM

More lines, now with the values ahead:

Row | IC50 (hFEN1) | IC50 (hXPG) | IC50 (hEXO1, Isoform1) | SMILES
11 | < 200 nM | 2250 to 10000 nM | 2250 to 10000 nM | O=C(O)c1c(O)c(=O)n(Cc2cnn(Cc3ccnnc3)c2)c2ccsc12 [Example 132, 6-hydroxy-5-oxo-4-{[1-(pyridazin-4-ylmethyl)-1H-pyrazol-4-yl]methyl}-4,5-dihydrothieno[3,2-b]pyridine-7-carboxylic acid]
12 | < 200 nM | 750 to 2250 nM | 2250 to 10000 nM | Cc1cc(C#N)ccc1Cn1cc(Cn2c(=O)c(O)c(C(=O)O)c3sccc32)cn1 [Example 133, 4-{[1-(4-cyano-2-methylbenzyl)-1H-pyrazol-4-yl]methyl}-6-hydroxy-5-oxo-4,5-dihydrothieno[3,2-b]pyridine-7-carboxylic acid]
13 | < 200 nM | > 10000 nM | 2250 to 10000 nM | NC(=O)Cn1cc(Cn2c(=O)c(O)c(C(=O)O)c3sccc32)cn1 [Example 136, 4-{[1-(2-amino-2-oxoethyl)-1H-pyrazol-4-yl]methyl}-6-hydroxy-5-oxo-4,5-dihydrothieno[3,2-b]pyridine-7-carboxylic acid]
14 | < 200 nM | 2250 to 10000 nM | 2250 to 10000 nM | O=C(O)c1c(O)c(=O)n(Cc2cnn(Cc3cn4ncccc4n3)c2)c2ccsc12 [Example 138]
15 | < 200 nM | 2250 to 10000 nM | 2250 to 10000 nM | O=C(O)c1c(O)c(=O)n(Cc2cnn(Cc3cccc4nonc34)c2)c2ccsc12 [Example 140, 4-{[1-(benzo[c][1,2,5]oxadiazol-4-ylmethyl)-1H-pyrazol-4-yl]methyl}-6-hydroxy-5-oxo-4,5-dihydrothieno[3,2-b]pyridine-7-carboxylic acid]
16 | < 200 nM | 2250 to 10000 nM | 750 to 2250 nM | O=C(O)c1c(O)c(=O)n(Cc2cnn(Cc3ccc4nonc4c3)c2)c2ccsc12 [Example 141, 4-{[1-(benzo[c][1,2,5]oxadiazol-5-ylmethyl)-1H-pyrazol-4-yl]methyl}-6-hydroxy-5-oxo-4,5-dihydrothieno[3,2-b]pyridine-7-carboxylic acid]
17 | < 200 nM | 2250 to 10000 nM | 2250 to 10000 nM | Cn1cc(Cn2cc(Cn3c(=O)c(O)c(C(=O)O)c4sccc43)cn2)cn1 [Example 143, 6-hydroxy-4-({1-[(1-methyl-1H-pyrazol-4-yl)methyl]-1H-pyrazol-4-yl}methyl)-5-oxo-4,5-dihydrothieno[3,2-b]pyridine-7-carboxylic acid]
18 | < 200 nM | > 10000 nM | 2250 to 10000 nM | O=C(O)c1c(O)c(=O)n(Cc2cnn(Cc3cnc4ccccn34)c2)c2ccsc12 [Example 144, 6-hydroxy-4-{[1-(imidazo[1,2-a]pyridin-3-ylmethyl)-1H-pyrazol-4-yl]methyl}-5-oxo-4,5-dihydrothieno[3,2-b]pyridine-7-carboxylic acid]
19 | < 200 nM | 750 to 2250 nM | 2250 to 10000 nM | N#Cc1ccc(Cn2cc(Cn3c(=O)c(O)c(C(=O)O)c4sccc43)cn2)c(C(F)(F)F)c1 [Example 146, 4-({1-[4-cyano-2-(trifluoromethyl)benzyl]-1H-pyrazol-4-yl}methyl)-6-hydroxy-5-oxo-4,5-dihydrothieno[3,2-b]pyridine-7-carboxylic acid]
20 | < 200 nM | 250 to 750 nM | 250 to 750 nM | O=C(O)c1c(O)c(=O)n(Cc2cn(-c3ccc4c(c3)OCO4)nn2)c2ccsc12 [Example 148, 4-{[1-(benzo[d][1,3]dioxol-5-yl)-1H-1,2,3-triazol-4-yl]methyl}-6-hydroxy-5-oxo-4,5-dihydrothieno[3,2-b]pyridine-7-carboxylic acid]
21 | < 200 nM | 750 to 2250 nM | 2250 to 10000 nM | O=C(O)c1c(O)c(=O)n(Cc2cn(-c3ccc4nc[nH]c4c3)nn2)c2ccsc12 [Example 149, 4-{[1-(1H-benzo[d]imidazol-6-yl)-1H-1,2,3-triazol-4-yl]methyl}-6-hydroxy-5-oxo-4,5-dihydrothieno[3,2-b]pyridine-7-carboxylic acid]
22 | 250 to 750 nM | > 10000 nM | > 10000 nM | O=C(O)c1c(O)c(=O)n(Cc2cnn(CC(=O)N3CC[C@H](O)C3)c2)c2ccsc12 [Example 154, (S)-6-hydroxy-4-({1-[2-(3-hydroxypyrrolidin-1-yl)-2-oxoethyl]-1H-pyrazol-4-yl}methyl)-5-oxo-4,5-dihydrothieno[3,2-b]pyridine-7-carboxylic acid]
23 | < 200 nM | 2250 to 10000 nM | 2250 to 10000 nM | CN(C(=O)Cn1cc(Cn2c(=O)c(O)c(C(=O)O)c3sccc32)cn1)c1ccccc1 [Example 155]
